Assay results taken from patent US8101760B2, “Glucocorticoid receptor modulator and methods of use” (Eli Lilly and Company, priority 2007, dated 2012).

What was measured:
[1] = Metabolic profiling of plasma after in vivo administration, dog
[2] = Bioavailability and plasma exposure after oral administration to test animals; assay type: in vivo
[3] = molecular target: T1, human mineralocorticoid receptor (MR) (Homo sapiens, UniProt P08235); test: Nuclear hormone receptor functional modulation assay (GRE-luciferase, HEK293), MR; assay type: cell-based
T1 construct: expressed in transfected cells; host or cells: HEK293, transient transfection (Fugene), CMV promoter plasmid
T1 sequence (P08235 1-984): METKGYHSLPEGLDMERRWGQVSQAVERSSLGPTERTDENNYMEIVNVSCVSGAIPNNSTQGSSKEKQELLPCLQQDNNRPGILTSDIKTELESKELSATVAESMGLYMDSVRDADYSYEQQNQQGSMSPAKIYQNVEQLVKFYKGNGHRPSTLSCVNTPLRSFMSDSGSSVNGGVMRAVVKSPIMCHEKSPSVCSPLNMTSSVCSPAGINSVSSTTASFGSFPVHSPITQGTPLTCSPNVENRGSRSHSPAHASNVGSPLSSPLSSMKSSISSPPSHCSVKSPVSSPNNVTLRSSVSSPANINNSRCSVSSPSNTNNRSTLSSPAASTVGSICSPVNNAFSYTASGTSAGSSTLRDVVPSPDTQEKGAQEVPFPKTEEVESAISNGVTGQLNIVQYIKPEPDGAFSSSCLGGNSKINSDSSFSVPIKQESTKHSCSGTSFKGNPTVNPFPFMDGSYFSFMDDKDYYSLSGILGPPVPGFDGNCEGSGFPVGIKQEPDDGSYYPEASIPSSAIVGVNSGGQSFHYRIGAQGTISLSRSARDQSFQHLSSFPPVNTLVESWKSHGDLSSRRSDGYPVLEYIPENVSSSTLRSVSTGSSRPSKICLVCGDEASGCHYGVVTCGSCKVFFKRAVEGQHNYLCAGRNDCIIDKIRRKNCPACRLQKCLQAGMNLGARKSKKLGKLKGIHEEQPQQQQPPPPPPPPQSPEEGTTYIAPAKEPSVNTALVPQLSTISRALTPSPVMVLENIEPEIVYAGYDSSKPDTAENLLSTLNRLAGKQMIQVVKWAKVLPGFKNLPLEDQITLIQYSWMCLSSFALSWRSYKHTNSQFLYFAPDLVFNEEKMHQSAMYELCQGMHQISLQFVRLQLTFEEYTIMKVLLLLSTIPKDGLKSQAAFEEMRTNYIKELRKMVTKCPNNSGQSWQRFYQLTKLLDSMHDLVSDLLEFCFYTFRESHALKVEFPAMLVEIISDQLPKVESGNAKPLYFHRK
Source text: The solvents, reagents, and ligands employed in the functional assay are readily available from commercial sources, or can be prepared by one of ordinary skill in the art.
Human embryonic kidney HEK293 cells are transfected with steroid hormone receptor and reporter gene plasmids using Fugene™ (Roche Diganostics) transfection reagent. Briefly, the reporter plasmid containing two copies of probasin ARE (androgen response element 5′GGTTCTTGGAGTACT3′ (SEQ ID NO:1)) and TK(thymidine kinase) promoter upstream of the luciferase reporter cDNA, is transfected into HEK293 cells with a plasmid constitutively expressing human androgen receptor (AR) using viral CMV(cytomegalovirus) promoter. The reporter plasmid containing two copies of GRE (glucocorticoid response element 5′TGTACAGGATGTTCT′3 (SEQ ID NO:2)) and TK promoter upstream of the luciferase reporter cDNA is transfected with a plasmid constitutively expressing either human glucocorticoid receptor (GR), human mineralocorticoid receptor (MR), or human progesterone receptor (PR) using viral CMV promoter. Cells are transfected in T150 cm flasks in DMEM media with 5% charcoal-stripped Fetal Bovine Serum (FBS). […] In the antagonist mode for the assays, low concentrations of agonist for each respective receptor are added to the media (0.25 nM dexamethasone for GR, 0.3 nM of methyltrienolone for AR, 0.05 nM of promegestone for PR and 0.05 nM aldosterone for MR), and the ability of test compound to antagonize the agonist response is determined. After 24 hours of incubation with test compounds, cells are lysed and luciferase activity is determined using standard techniques.
Data are fitted to a four parameter-fit logistic curve fit to determine EC50 values. […] IC50 values may be determined similarly using antagonist mode assay data. Percent inhibitions may also be determined relative to the response in the presence of agonist alone, as described above.

[4] = test system: serum osteocalcin; test: Serum osteocalcin assay; assay type: in vivo, mouse; settings: mice, oral, seven days; 1 mg/kg/day Compound (I) vs 10 mg/kg/day prednisolone; mean of 6
Source text: Bone loss/osteoporosis and the resulting increased risk of fracture is a common and significant adverse effect that results from glucocorticoid therapy. Glucocorticoid induced osteoporosis is believed to result, at least in part, from an inhibition of bone formation. The measurement of serum osteocalcin, a biological marker of bone synthesis, is a recognized tool for assessing the adverse effects of glucocorticoid therapy on bone. (see Pearce et al., J. Clin. Endocrino. Metab. 83: 801-806, (1998)).
To assess the effects of Compound (I) on bone formation, Compound (I) is formulated in a vehicle comprising 5% carboxymethyl cellulose and 0.25% Tween 80 and administered orally via gavage to sixteen week old male Swiss-Web mice (Harlan Industries, Indianapolis, Ind.) for seven days. For comparison, prednisolone is administered orally in the same vehicle. Serum is collected 24 hours after the last dose and osteocalcin levels are determined using a competitive radioimmunoassay (RIA) kit (Biomedical Technologies, Inc., Stoughton, Mass.) modified to a 96 well format. […] The filters are punched and the radioactivity quantitated on a gamma counter (Cobra II, Packard Instruments, Meriden, Conn.). Radioactivity detected on the filters from test samples is inversely proportional to serum osteocalcin concentration. […]

CC/C(=C1\c2ccc(Cl)cc2OCc2ncccc21)c1cccc(NS(C)(=O)=O)c1 [Compound (I), (E)-N-{3-[1-(8-Chloro-11H-10-oxa-1-aza-dibenzo[a,d]cyclohepten-5-ylidene)-propyl]-phenyl}-methanesulfonamide]
circulating entity in plasma [1]: major circulating entity | bioavailability [2]: good | plasma exposure [2]: good | EC50 ([3]; agonist mode, activating transcription): > 10 µM | modulation of gene expression mediated by MR ([3]; functional modulation, in words): only limited activity | MR % Eff. ([3]; percent efficacy at 10 μM relative to 30 nM aldosterone, mean of 3): 8.5% | reduction in serum osteocalcin levels compared with prednisolone [4]: less reduction
